# Measured values: patent US4248864A, “Reproduction control” (American Home Products Corporation, priority 1979, dated 1981)
# Several values for one entry are separate records, joined by “and”; a condition that tells them apart may be missing. Equal entries are not always repeated. Entries after “also recorded” stand apart in the source; their conditions may differ.
# Legend:
# [1] = tested on: Female Charles River CD rats (pregnancy); experiment: Post-coital contraceptive effect in the rat: single intrauterine (right horn) administration on D5 of pregnancy; assay type: in vivo; details: for Number of placental sites, left horn / Number of placental sites, right horn (injected) / Number of viable fetuses, left horn / Number of viable fetuses, right horn (injected) / Uterine weight, left horn and contents / Uterine weight, right horn (injected) and contents: autopsy D20, 15 rats/group; for Uterine weight, left horn and contents / Uterine weight, right horn (injected) and contents: in g
# Method: Female Charles River CD® rats (200-210 g) were allowed to cohabit with proven males; the presence of sperm in the vaginal smear was considered day 1 (D1) of pregnancy. In order to lessen the problem of variability between experiments, 5 rats were autopsied at each dose level and the study replicated 3 times to accumulate a total of 15 rats in each experimental group. Luteinizing hormone-releasing hormone was dissolved in 2 μl of 0.9% NaCl and injected into the right horn of the uterus below the utero-tubal junction between 0945 and 1015 h on D5. One group of control animals received an intrauterine (IU) injection of 2 μl saline into the right horn on D5. The control animals were autopsied in groups of 5 rats and replicated 3 times to accumulate a total of 15 rats. On D20 the rats were sacrificed, and the uterine horns were divided and weighed individually. The number of viable fetuses as well as the number of placental sites in each horn was recorded. Fetuses from both horns, in control and experimental groups, were examined and weighed individually. A viable fetus is defined as one which compares in anatomical development and weight to a normal control fetus at D20 of gestation. Statistical analysis of the number of viable fetuses and placental sites in each horn was determined by the Kruwalc-Henderson method (Proc. Third Am. Conference of the SAS Users Group International, SAS Institute, Raleigh, North Carolina (1978)); uterine weights of each horn were subjected to analysis of variance (Conover, Practical Nonparametric Statistics, N.Y. John Wiley and Sons, Inc. page 256 (1979)).
# Following the same procedure, [D-Trp^6, des-Gly-NH2^10 ]LHRH ethylamide (a representative LHRH agonist analogue) was injected into the uterine lumen of the right uterine horn of female Charles River CD® rats on day 5 after coitus. The status of the pregnancy as indicated by viable fetuses was as follows: […]
# [2] = tested on: Female Charles River CD rats (pregnancy); experiment: Single intravaginal or intrajugular administration on D5 of pregnancy; assay type: in vivo, rat; details: for Number of placental sites, left horn / Number of placental sites, right horn / Number of viable fetuses, left horn / Number of viable fetuses, right horn / Uterine weight, left horn / Uterine weight, right horn: 5 rats/group; for Uterine weight, left horn / Uterine weight, right horn: in g
# [3] = tested on: zona pellucida of blastocyst; experiment: In vitro removal (lysis) of the zona pellucida of a blastocyst; assay type: cell-based
# Excerpt: To denude a blastocyst of its zona pellucide in vitro the fertilized ovum is removed from the uterus of the donor animal by known means. The blastocyst is then placed in a small volume of known compatable medium such as physiological saline and LHRH or an agonist is introduced into the medium. The course of removal of the zona pellucida may be readily followed with a microscope and the time period necessary for complete removal of the zona is related to the concentration of the releasing hormone, thereby permitting timed blastocyst release during egg transplant procedures. At 500 μg/μl LHRH in 0.9 percent saline the zona pellucida lyses in about 0.5 minutes; at 50 μg/μl in about 15 to 25 minutes and at 15 μg/μl in about 60 minutes. Recovery of the free blastocyst and transfer to the uterus of a properly prepared and timed mammalion species may then be effected by conventional transfer techniques under optimal timing conditions of both the fertilized egg and the uterine epithelium.
# pregnancy = details: cited from earlier work
# [4] = 100 μg intrauterine right horn D5
# [5] = 200 μg intrauterine right horn D5
# [6] = 300 μg intrauterine right horn D5
# [7] = 500 μg intrauterine right horn D5
# [8] = 1,000 μg intrauterine right horn D5
# [9] = dose 1,000, single intrajugular (IV) D5
# [10] = dose 1,000, single intravaginal (Vag) D5
# [11] = 10 μg into right uterine horn day 5 after coitus, 4 rats
# [12] = 100 μg into right uterine horn day 5 after coitus, 5 rats
# [13] = 1,000 μg into right uterine horn day 5 after coitus, 4 rats
substance,measurement,setting,value
[D-Trp^6 -N-methyl-Leu^7 des-Gly NH2^10 ]LHRH ethylamide,Single intra-uterine treatment dose sufficient to prevent pregnancy,[1],100 µg
Luteinizing hormone releasing hormone [LHRH],"Number of placental sites, left horn",[1]; [4],0.1 ± 0.1
same,"Number of placental sites, right horn (injected)",[1]; [4],0.1 ± 0.1
same,"Number of viable fetuses, left horn",[1]; [4],5.7 ± 0.4
same,"Number of viable fetuses, right horn (injected)",[1]; [4],3.2 ± 0.3
same,"Uterine weight, left horn and contents",[1]; [4],19.1 ± 1.5
same,"Uterine weight, right horn (injected) and contents",[1]; [4],12.0 ± 1.0
same,"Number of placental sites, left horn",[1]; [5],0.1 ± 0.1
same,"Number of placental sites, right horn (injected)",[1]; [5],1.6 ± 0.5
same,"Number of viable fetuses, left horn",[1]; [5],5.4 ± 0.8
same,"Number of viable fetuses, right horn (injected)",[1]; [5],1.7 ± 0.4
same,"Uterine weight, left horn and contents",[1]; [5],19.4 ± 2.7
same,"Uterine weight, right horn (injected) and contents",[1]; [5],6.5 ± 1.3
same,"Number of placental sites, left horn",[1]; [6],0.7 ± 0.6
same,"Number of placental sites, right horn (injected)",[1]; [6],1.3 ± 0.3
same,"Number of viable fetuses, left horn",[1]; [6],6.5 ± 0.6
same,"Number of viable fetuses, right horn (injected)",[1]; [6],1.5 ± 0.4
same,"Uterine weight, left horn and contents",[1]; [6],21.2 ± 2.3
same,"Uterine weight, right horn (injected) and contents",[1]; [6],6.9 ± 1.6
same,"Number of placental sites, left horn",[1]; [7],0.5 ± 0.3
same,"Number of placental sites, right horn (injected)",[1]; [7],1.5 ± 0.7
same,"Number of viable fetuses, left horn",[1]; [7],6.1 ± 0.7
same,"Number of viable fetuses, right horn (injected)",[1]; [7],1.3 ± 0.3
same,"Uterine weight, left horn and contents",[1]; [7],21.8 ± 2.0
same,"Uterine weight, right horn (injected) and contents",[1]; [7],6.0 ± 0.9
same,"Number of placental sites, left horn",[1]; [8],0.3 ± 0.2
same,"Number of placental sites, right horn (injected)",[1]; [8],2.3 ± 0.6
same,"Number of viable fetuses, left horn",[1]; [8],6.9 ± 0.7
same,"Number of viable fetuses, right horn (injected)",[1]; [8],0.8 ± 0.2 and 0.8
same,"Uterine weight, left horn and contents",[1]; [8],24.3 ± 2.5
same,"Uterine weight, right horn (injected) and contents",[1]; [8],4.3 ± 0.8
same,Number of placental sites vs control,[1]; 200-1000 μg intrauterine right horn D5,significant increase
same,Number of viable fetuses in the right horn vs control,"[1]; all doses (100-1,000 μg) intrauterine right horn D5",significant reduction
same,Single intra-uterine treatment dose sufficient to prevent pregnancy,[1],"about 1,000 μg"
same,"Effect on pregnancy (viable fetuses, uterine weight, placental sites) in either horn",[2]; 1000 μg via jugular vein or vagina on D5,failed to alter the pregnancy in either horn; also recorded: inactive; also recorded: no negative effects
same,"Number of placental sites, left horn",[2]; [9],0.6±0.2
same,"Number of placental sites, right horn",[2]; [9],0.2±0.2
same,"Number of viable fetuses, left horn",[2]; [9],7.4±0.7
same,"Number of viable fetuses, right horn",[2]; [9],5.4±1.0
same,"Uterine weight, left horn",[2]; [9],26.3±3.0
same,"Uterine weight, right horn",[2]; [9],18.2±3.9
same,"Number of placental sites, left horn",[2]; [10],0.4±0.2
same,"Number of placental sites, right horn",[2]; [10],0.2±0.2
same,"Number of viable fetuses, left horn",[2]; [10],6.6±0.9
same,"Number of viable fetuses, right horn",[2]; [10],7.4±0.8
same,"Uterine weight, left horn",[2]; [10],20.5±2.9
same,"Uterine weight, right horn",[2]; [10],21.4±2.0
same,Time to lysis of the zona pellucida,[3]; 15 μg/μl in 0.9 percent saline,about 60 minutes
same,Time to lysis of the zona pellucida,[3]; 500 μg/μl in 0.9 percent saline,about 0.5 minutes
same,Effect on number of viable fetuses or uterine weight,"pregnancy; 1000 μg injection (s.c.) on D5, Humphrey et al.",failed to alter
same,Effect on ensuing pregnancy,"pregnancy; acute subcutaneous injection of 5000 μg, Beattie and Corbin 1977",failed to inhibit the ensuing pregnancy
"[D-Trp^6, des-Gly-NH2^10 ]LHRH ethylamide","Viable Fetuses Mean, Left",[1]; [11],6.5
same,"Viable Fetuses Mean, Right",[1]; [11],3.8
same,"Viable Fetuses Mean, Left",[1]; [12],3.6
same,"Viable Fetuses Mean, Right",[1]; [12],0.4
same,"Viable Fetuses Mean, Left",[1]; [13],3.3
same,"Viable Fetuses Mean, Right",[1]; [13],0.5
